In ChEMBL document CHEMBL1201862, “PubChem BioAssay data set” (2004):
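Cultured in 96-well plates, cells were exposed to test compound for 48 hours across five concentrations. The concentration for 50% growth inhibition is given as GI50.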 Active and inactive are the calls of the source. No stated cut-off is given here; in the data, active = GI50 up to about 1.1 µM and inactive = higher.

What was measured:
Assay in all cases: NCI anticancer screen, dose series, 48 h
786-0 = test system: 786-0
A498 = test system: A498
A549 = test system: A549
ACHN = test system: ACHN
BT-549 = test system: BT-549
CAKI-1 = test system: CAKI-1
DU-145 = test system: DU-145
EKVX = test system: EKVX
HCC 2998 = test system: HCC 2998
HCT-116 = test system: HCT-116
HCT-15 = test system: HCT-15
HOP-62 = test system: HOP-62
HOP-92 = test system: HOP-92
HT-29 = test system: HT-29
Hs-578T = test system: Hs-578T
IGROV-1 = test system: IGROV-1
K562 = test system: K562
KM12 = test system: KM12
LOX IMVI = test system: LOX IMVI
M14 = test system: M14
MDA-MB-231 = test system: MDA-MB-231
MDA-MB-435 = test system: MDA-MB-435
MDA-N = test system: MDA-N
MOLT-4 = test system: MOLT-4
Malme-3M = test system: Malme-3M
NCI-H226 = test system: NCI-H226
NCI-H23 = test system: NCI-H23
NCI-H460 = test system: NCI-H460
NCI-H522 = test system: NCI-H522
NCI/ADR-RES = test system: NCI/ADR-RES
OVCAR-3 = test system: OVCAR-3
OVCAR-4 = test system: OVCAR-4
OVCAR-5 = test system: OVCAR-5
OVCAR-8 = test system: OVCAR-8
PC-3 = test system: PC-3
RXF 393 = test system: RXF 393
SF-268 = test system: SF-268
SF-295 = test system: SF-295
SK-MEL-28 = test system: SK-MEL-28
SK-MEL-2 = test system: SK-MEL-2
SK-MEL-5 = test system: SK-MEL-5
SN12C = test system: SN12C
SNB-19 = test system: SNB-19
SNB-75 = test system: SNB-75
SR = test system: SR
SW-620 = test system: SW-620
T47D = test system: T47D
TK-10 = test system: TK-10
U-251 = test system: U-251
UACC-257 = test system: UACC-257
UACC-62 = test system: UACC-62
UO-31 = test system: UO-31
COLO 205 = test system: COLO 205
HL-60 = test system: HL-60
RPMI-8226 = test system: RPMI-8226
SF-539 = test system: SF-539
SK-OV-3 = test system: SK-OV-3
CCRF-CEM = test system: CCRF-CEM
MCF7 = test system: MCF7

Measured: GI50

NCC(=O)Nc1ccccc1
inactive: 786-0 > 100 µM | A498 > 100 µM | A549 > 100 µM | ACHN > 100 µM | BT-549 > 100 µM | CAKI-1 > 100 µM | DU-145 > 100 µM | EKVX > 100 µM | HCC 2998 > 100 µM | HCT-116 > 100 µM | HOP-62 > 100 µM | HOP-92 > 100 µM | HT-29 > 100 µM | Hs-578T > 100 µM | IGROV-1 > 100 µM | K562 60.5 µM | KM12 > 100 µM | LOX IMVI > 100 µM | M14 > 100 µM | MDA-MB-231 15.5 µM | MDA-MB-435 > 100 µM | MDA-N > 100 µM | MOLT-4 > 100 µM | Malme-3M > 100 µM | NCI-H226 > 100 µM | NCI-H23 > 100 µM | NCI-H460 > 100 µM | NCI-H522 > 100 µM | NCI/ADR-RES > 100 µM | OVCAR-3 > 100 µM | OVCAR-4 > 100 µM | OVCAR-5 > 100 µM | OVCAR-8 > 100 µM | PC-3 > 100 µM | RXF 393 > 100 µM | SF-268 > 100 µM | SF-295 > 100 µM | SK-MEL-28 > 100 µM | SK-MEL-2 87.7 µM | SK-MEL-5 > 100 µM | SN12C > 100 µM | SNB-19 > 100 µM | SNB-75 > 100 µM | SR > 100 µM | SW-620 > 100 µM | T47D > 100 µM | TK-10 > 100 µM | U-251 > 100 µM | UACC-257 > 100 µM | UACC-62 > 100 µM | UO-31 > 100 µM
> 100 µM: HCT-15

O=c1nc(N2CCCCC2)sc2[nH]c3ccccc3c12
> 100 µM: HCT-15
inactive: 786-0 > 100 µM | A498 > 100 µM | A549 > 100 µM | ACHN > 100 µM | BT-549 > 100 µM | CAKI-1 > 100 µM | COLO 205 > 100 µM | DU-145 > 100 µM | EKVX > 100 µM | HL-60 > 100 µM | HOP-62 36.2 µM | HOP-92 55.3 µM | HT-29 62.4 µM | Hs-578T > 100 µM | IGROV-1 78 µM | K562 > 100 µM | KM12 > 100 µM | LOX IMVI 74.8 µM | M14 34.8 µM | MDA-MB-231 78.7 µM | MDA-MB-435 > 100 µM | MDA-N > 100 µM | MOLT-4 > 100 µM | Malme-3M 68.4 µM | NCI-H23 12.2 µM | NCI-H460 98.2 µM | NCI-H522 > 100 µM | NCI/ADR-RES 12.6 µM | OVCAR-3 88.9 µM | OVCAR-4 > 100 µM | OVCAR-5 11.1 µM | OVCAR-8 > 100 µM | PC-3 > 100 µM | RPMI-8226 40.9 µM | SF-268 54.3 µM | SF-295 > 100 µM | SF-539 > 100 µM | SK-MEL-28 > 100 µM | SK-MEL-2 > 100 µM | SK-MEL-5 > 100 µM | SK-OV-3 > 100 µM | SN12C > 100 µM | SNB-19 63.1 µM | SNB-75 > 100 µM | SR > 100 µM | SW-620 > 100 µM | T47D > 100 µM | TK-10 66.2 µM | U-251 96.4 µM | UACC-257 > 100 µM | UACC-62 > 100 µM | UO-31 24.8 µM

O=c1[nH]c(-n2[nH]c3c(c2=O)CCCC3)nc(O)c1-c1ccccc1
inactive: 786-0 > 100 µM | A498 > 100 µM | ACHN > 100 µM | BT-549 > 100 µM | CAKI-1 > 100 µM | CCRF-CEM > 100 µM | COLO 205 > 100 µM | DU-145 > 100 µM | EKVX > 100 µM | HCT-116 > 100 µM | HL-60 > 100 µM | HOP-92 > 100 µM | HT-29 > 100 µM | Hs-578T > 100 µM | IGROV-1 > 100 µM | K562 > 100 µM | KM12 > 100 µM | M14 > 100 µM | MDA-MB-231 > 100 µM | MDA-MB-435 > 100 µM | MDA-N > 100 µM | MOLT-4 > 100 µM | Malme-3M > 100 µM | NCI-H226 > 100 µM | NCI-H23 > 100 µM | NCI-H460 > 100 µM | NCI-H522 > 100 µM | NCI/ADR-RES > 100 µM | OVCAR-4 > 100 µM | OVCAR-5 > 100 µM | OVCAR-8 > 100 µM | PC-3 > 100 µM | RPMI-8226 > 100 µM | RXF 393 > 100 µM | SF-268 > 100 µM | SF-295 > 100 µM | SK-MEL-28 > 100 µM | SK-MEL-2 > 100 µM | SK-MEL-5 > 100 µM | SK-OV-3 > 100 µM | SN12C > 100 µM | SNB-19 > 100 µM | SR > 100 µM | SW-620 > 100 µM | T47D > 100 µM | TK-10 > 100 µM | U-251 > 100 µM | UACC-257 > 100 µM | UACC-62 > 100 µM | UO-31 > 100 µM
> 100 µM: HCT-15

O=c1[nH]c(=O)n(C2CC(O)C(CO)O2)cc1C1=NC1 (stereo not given)
inactive: 786-0 > 100 µM | A498 > 100 µM | A549 > 100 µM | ACHN > 100 µM | BT-549 > 100 µM | COLO 205 > 100 µM | DU-145 > 100 µM | EKVX > 100 µM | HCC 2998 > 100 µM | HCT-116 > 100 µM | HOP-62 > 100 µM | HOP-92 > 100 µM | HT-29 > 100 µM | Hs-578T > 100 µM | IGROV-1 > 100 µM | KM12 > 100 µM | M14 > 100 µM | MCF7 > 100 µM | MDA-MB-231 > 100 µM | MDA-MB-435 > 100 µM | MDA-N > 100 µM | MOLT-4 > 100 µM | NCI-H226 > 100 µM | NCI-H23 > 100 µM | NCI-H460 > 100 µM | NCI/ADR-RES > 100 µM | OVCAR-3 > 100 µM | OVCAR-4 > 100 µM | OVCAR-5 > 100 µM | OVCAR-8 > 100 µM | RPMI-8226 50.6 µM | RXF 393 > 100 µM | SF-268 > 100 µM | SF-295 > 100 µM | SF-539 > 100 µM | SK-MEL-28 > 100 µM | SK-MEL-2 > 100 µM | SK-MEL-5 > 100 µM | SK-OV-3 > 100 µM | SN12C > 100 µM | SNB-19 > 100 µM | SNB-75 81.3 µM | SW-620 > 100 µM | T47D 35.2 µM | TK-10 > 100 µM | U-251 > 100 µM | UACC-257 > 100 µM | UACC-62 > 100 µM | UO-31 > 100 µM
> 100 µM: HCT-15

CC(C)(C)[Si](C)(C)OCCC1CC2(S(=O)(=O)C3=CC=C=C=C3)ON1CC2S(=O)(=O)c1ccccc1 (stereo not given)
inactive: 786-0 > 10 µM | A498 > 10 µM | A549 > 10 µM | ACHN > 10 µM | BT-549 > 10 µM | CCRF-CEM 2.56 µM | COLO 205 > 10 µM | DU-145 > 10 µM | EKVX > 10 µM | HCC 2998 > 10 µM | HCT-116 > 10 µM | HOP-62 > 10 µM | HT-29 > 10 µM | Hs-578T > 10 µM | IGROV-1 > 10 µM | KM12 > 10 µM | M14 > 10 µM | MCF7 > 10 µM | MDA-MB-231 > 10 µM | MDA-MB-435 > 10 µM | MDA-N > 10 µM | MOLT-4 > 10 µM | NCI-H226 > 10 µM | NCI-H23 > 10 µM | NCI-H460 > 10 µM | NCI/ADR-RES > 10 µM | OVCAR-3 > 10 µM | OVCAR-4 > 10 µM | OVCAR-5 > 10 µM | OVCAR-8 > 10 µM | RPMI-8226 > 10 µM | RXF 393 > 10 µM | SF-268 > 10 µM | SF-295 > 10 µM | SF-539 > 10 µM | SK-MEL-28 > 10 µM | SK-MEL-2 > 10 µM | SK-MEL-5 > 10 µM | SK-OV-3 > 100 µM | SN12C > 10 µM | SNB-19 > 10 µM | SNB-75 > 10 µM | SW-620 > 10 µM | T47D > 10 µM | TK-10 > 10 µM | U-251 > 100 µM | UACC-257 > 10 µM | UACC-62 > 10 µM | UO-31 > 10 µM
